Assay results: patent publication US20080233558A1, “Inhibitors of viral entry screening method” (priority 2005, published 2008)

Experiments:
[1] = test system: indicator cells (HEK293T expressing tPA-HA); settings: increasing inhibitor concentrations up to 1 mM; due to cytotoxic effects
[2] = test system: MLV(VSV-G Env) pseudotype particles; type: cell-based
[3] = test system: MLV(VSV-G Env) particles that transduce a gfp-gene; type: cell-based
[4] = test system: MLV(VSV-G Env) pseudotype particles; type: cell-based; remark: listed apart in the source

Cc1cn([C@H]2C[C@H](N=[N+]=[N-])[C@@H](CO)O2)c(=O)[nH]c1=O [AZT]
fluorescence signal of indicator cells in absence of any particles [1]: decreasing fluorescence intensities
cell populations after α-HA antibody staining [2]: just one (fluorescence positive) population
gfp fluorescence signal at the highest inhibitor concentration [3]: lowest fluorescence signal
fluorescence readout signal with increasing concentrations of the inhibitor [4]: increased signal intensities
readout signal at concentrations higher than the optimal concentration [4]: decreased readout signals
